In ChEMBL document CHEMBL3763130, “Recent advances in the development of dual VEGFR and c-Met small molecule inhibitors as anticancer drugs” (Eur J Med Chem, 2016):
pIC50, pKi: −log10 of the molar value. Blank lines part the entries; values can stand above or below the compound they belong to.

Key:
[1] = biological target: Hepatocyte growth factor receptor (Homo sapiens, UniProt P08581); experiment: Inhibition of c-Met (unknown origin)
[2] = Cytotoxicity against HUVEC assessed as inhibition of VEGF-independent growth after 72 hrs by CellTiter-Glo method; type: cell-based; details: human, HUVEC cells
[3] = biological target: Vascular endothelial growth factor receptor 2 (Homo sapiens, UniProt P35968); experiment: Inhibition of VEGFR-2 autophosphorylation in HUVEC after 1 hr by Western blot analysis; type: cell-based
[4] = Cytotoxicity against human SNU5 cells assessed as inhibition of tumour growth after 3 days by WST-8 assay; type: functional, cell-based; details: SNU-5, 72 h
[5] = Cytotoxicity against human Hs 746T cells assessed as inhibition of tumour growth after 3 days by WST-8 assay; type: functional, cell-based; details: Hs746T, 72 h
[6] = Cytotoxicity against human EBC1 cells assessed as inhibition of tumour growth after 3 days by WST-8 assay; type: functional, cell-based; details: EBC-1, 72 h
[7] = Cytotoxicity against human MKN45 cells assessed as inhibition of tumour growth after 3 days by WST-8 assay; type: functional, cell-based; details: MKN-45, 72 h
HUVEC [8] = experiment: Antiangiogenic activity in HUVEC assessed as inhibition of VEGF induced cell proliferation after 3 days by WST-1 assay; type: functional, cell-based; details: Homo sapiens, 72 h
HUVEC [9] = experiment: Antiangiogenic activity in HUVEC assessed as inhibition of HGF induced cell proliferation after 3 days by WST-1 assay; type: functional, cell-based; details: Homo sapiens, 72 h
HUVEC [10] = experiment: Antiangiogenic activity in HUVEC assessed as inhibition of bFGF induced cell proliferation after 3 days by WST-1 assay; type: functional, cell-based; details: Homo sapiens, 72 h
[11] = Antitumor activity against mouse B16F10 cells implanted in naive mouse assessed as reduction in metastatic tumor burden at 30 mg/kg, po qd by Zeiss stereoscopic analysis relative to control; type: functional, B16-F10; parameters: scale not given: the % may be the effect or the level left
[12] = Antitumor activity against mouse B16F10 cells implanted in naive mouse assessed as reduction in metastatic tumor burden at 100 mg/kg, po qd by Zeiss stereoscopic analysis relative to control; type: functional, B16-F10; parameters: scale not given: the % may be the effect or the level left
[13] = Antitumor activity against mouse B16F10 cells implanted in naive mouse assessed as reduction in lung surface tumor burden at 30 mg/kg, po qd by Zeiss stereoscopic analysis relative to control; type: functional, B16-F10; parameters: scale not given: the % may be the effect or the level left
[14] = Antitumor activity against mouse B16F10 cells implanted in naive mouse assessed as reduction in lung surface tumor burden at 100 mg/kg, po qd by Zeiss stereoscopic analysis relative to control; type: functional, B16-F10; parameters: scale not given: the % may be the effect or the level left
[15] = Antitumor activity against mouse B16F10 cells implanted in naive mouse assessed as tumour growth inhibition at 30 mg/kg, po qd by Zeiss stereoscopic analysis relative to control; type: functional; details: B16-F10, po, read-out: TGI
[16] = Antitumor activity against mouse B16F10 cells implanted in naive mouse assessed as tumour growth inhibition at 100 mg/kg, po qd by Zeiss stereoscopic analysis relative to control; type: functional; details: B16-F10, po, read-out: TGI
[17] = biological target: Vascular endothelial growth factor receptor 1 (Homo sapiens, UniProt P17948); experiment: Inhibition of VEGFR-1 (unknown origin) by AlphaScreen assay
[18] = biological target: Vascular endothelial growth factor receptor 3 (Homo sapiens, UniProt P35916); experiment: Inhibition of VEGFR-3 (unknown origin) by AlphaScreen assay
[19] = biological target: T1, Tyrosine-protein kinase receptor UFO (Homo sapiens, UniProt P30530); experiment: Inhibition of Axl (unknown origin)
T1 sequence (P30530 whole entry): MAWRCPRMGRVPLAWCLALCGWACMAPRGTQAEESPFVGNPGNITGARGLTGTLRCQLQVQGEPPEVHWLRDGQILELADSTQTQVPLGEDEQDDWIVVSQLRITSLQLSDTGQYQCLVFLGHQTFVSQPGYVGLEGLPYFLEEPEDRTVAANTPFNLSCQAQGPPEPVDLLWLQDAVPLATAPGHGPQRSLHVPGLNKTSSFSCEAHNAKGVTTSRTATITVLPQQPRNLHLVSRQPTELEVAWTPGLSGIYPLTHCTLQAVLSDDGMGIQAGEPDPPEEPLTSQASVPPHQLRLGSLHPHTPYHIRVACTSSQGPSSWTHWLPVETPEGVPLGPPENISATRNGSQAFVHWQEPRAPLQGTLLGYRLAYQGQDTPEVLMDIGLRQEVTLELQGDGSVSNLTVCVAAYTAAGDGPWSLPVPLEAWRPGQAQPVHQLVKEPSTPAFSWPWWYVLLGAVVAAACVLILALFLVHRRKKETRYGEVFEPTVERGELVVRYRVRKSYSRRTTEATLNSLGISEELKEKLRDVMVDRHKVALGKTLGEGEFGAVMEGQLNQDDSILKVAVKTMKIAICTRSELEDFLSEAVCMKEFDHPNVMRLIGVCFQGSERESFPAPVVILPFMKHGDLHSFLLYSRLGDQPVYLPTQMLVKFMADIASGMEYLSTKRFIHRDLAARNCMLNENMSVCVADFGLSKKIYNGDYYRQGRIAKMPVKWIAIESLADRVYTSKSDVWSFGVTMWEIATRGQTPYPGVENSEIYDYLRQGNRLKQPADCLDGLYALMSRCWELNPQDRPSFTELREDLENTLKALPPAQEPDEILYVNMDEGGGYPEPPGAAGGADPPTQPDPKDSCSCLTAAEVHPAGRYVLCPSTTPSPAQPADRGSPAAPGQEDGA

[20] = biological target: Macrophage-stimulating protein receptor (Homo sapiens, UniProt Q04912); experiment: Inhibition of Ron (unknown origin)
[21] = biological target: T2, Receptor-type tyrosine-protein kinase FLT3 (Homo sapiens, UniProt P36888); experiment: Inhibition of Flt-3 (unknown origin)
T2 sequence (P36888 whole entry): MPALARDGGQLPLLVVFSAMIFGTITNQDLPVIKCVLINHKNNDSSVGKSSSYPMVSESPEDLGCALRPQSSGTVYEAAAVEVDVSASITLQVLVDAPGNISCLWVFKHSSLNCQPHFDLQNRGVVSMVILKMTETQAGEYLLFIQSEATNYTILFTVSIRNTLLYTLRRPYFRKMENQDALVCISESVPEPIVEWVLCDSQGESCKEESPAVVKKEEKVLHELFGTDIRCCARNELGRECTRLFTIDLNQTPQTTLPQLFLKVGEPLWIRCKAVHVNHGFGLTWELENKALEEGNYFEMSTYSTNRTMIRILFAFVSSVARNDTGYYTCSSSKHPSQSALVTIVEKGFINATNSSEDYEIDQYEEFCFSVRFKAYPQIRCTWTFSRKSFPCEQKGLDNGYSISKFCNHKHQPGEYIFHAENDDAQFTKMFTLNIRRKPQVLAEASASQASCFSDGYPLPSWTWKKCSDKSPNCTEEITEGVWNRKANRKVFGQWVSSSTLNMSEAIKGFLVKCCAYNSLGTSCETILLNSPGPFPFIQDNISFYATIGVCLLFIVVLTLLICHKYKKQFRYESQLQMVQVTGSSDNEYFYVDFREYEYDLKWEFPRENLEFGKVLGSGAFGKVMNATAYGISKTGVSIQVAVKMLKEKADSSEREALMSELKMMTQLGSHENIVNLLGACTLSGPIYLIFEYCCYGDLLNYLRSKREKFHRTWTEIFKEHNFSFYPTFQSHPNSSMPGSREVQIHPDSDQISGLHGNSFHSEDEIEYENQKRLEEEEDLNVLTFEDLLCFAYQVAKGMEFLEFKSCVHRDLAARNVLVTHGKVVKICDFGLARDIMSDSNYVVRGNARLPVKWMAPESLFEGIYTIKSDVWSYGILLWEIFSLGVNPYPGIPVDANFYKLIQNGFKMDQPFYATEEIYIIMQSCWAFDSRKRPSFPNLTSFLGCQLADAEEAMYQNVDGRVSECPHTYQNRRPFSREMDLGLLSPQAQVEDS

Chain of Hepatocyte growth factor receptor (P08581 whole entry): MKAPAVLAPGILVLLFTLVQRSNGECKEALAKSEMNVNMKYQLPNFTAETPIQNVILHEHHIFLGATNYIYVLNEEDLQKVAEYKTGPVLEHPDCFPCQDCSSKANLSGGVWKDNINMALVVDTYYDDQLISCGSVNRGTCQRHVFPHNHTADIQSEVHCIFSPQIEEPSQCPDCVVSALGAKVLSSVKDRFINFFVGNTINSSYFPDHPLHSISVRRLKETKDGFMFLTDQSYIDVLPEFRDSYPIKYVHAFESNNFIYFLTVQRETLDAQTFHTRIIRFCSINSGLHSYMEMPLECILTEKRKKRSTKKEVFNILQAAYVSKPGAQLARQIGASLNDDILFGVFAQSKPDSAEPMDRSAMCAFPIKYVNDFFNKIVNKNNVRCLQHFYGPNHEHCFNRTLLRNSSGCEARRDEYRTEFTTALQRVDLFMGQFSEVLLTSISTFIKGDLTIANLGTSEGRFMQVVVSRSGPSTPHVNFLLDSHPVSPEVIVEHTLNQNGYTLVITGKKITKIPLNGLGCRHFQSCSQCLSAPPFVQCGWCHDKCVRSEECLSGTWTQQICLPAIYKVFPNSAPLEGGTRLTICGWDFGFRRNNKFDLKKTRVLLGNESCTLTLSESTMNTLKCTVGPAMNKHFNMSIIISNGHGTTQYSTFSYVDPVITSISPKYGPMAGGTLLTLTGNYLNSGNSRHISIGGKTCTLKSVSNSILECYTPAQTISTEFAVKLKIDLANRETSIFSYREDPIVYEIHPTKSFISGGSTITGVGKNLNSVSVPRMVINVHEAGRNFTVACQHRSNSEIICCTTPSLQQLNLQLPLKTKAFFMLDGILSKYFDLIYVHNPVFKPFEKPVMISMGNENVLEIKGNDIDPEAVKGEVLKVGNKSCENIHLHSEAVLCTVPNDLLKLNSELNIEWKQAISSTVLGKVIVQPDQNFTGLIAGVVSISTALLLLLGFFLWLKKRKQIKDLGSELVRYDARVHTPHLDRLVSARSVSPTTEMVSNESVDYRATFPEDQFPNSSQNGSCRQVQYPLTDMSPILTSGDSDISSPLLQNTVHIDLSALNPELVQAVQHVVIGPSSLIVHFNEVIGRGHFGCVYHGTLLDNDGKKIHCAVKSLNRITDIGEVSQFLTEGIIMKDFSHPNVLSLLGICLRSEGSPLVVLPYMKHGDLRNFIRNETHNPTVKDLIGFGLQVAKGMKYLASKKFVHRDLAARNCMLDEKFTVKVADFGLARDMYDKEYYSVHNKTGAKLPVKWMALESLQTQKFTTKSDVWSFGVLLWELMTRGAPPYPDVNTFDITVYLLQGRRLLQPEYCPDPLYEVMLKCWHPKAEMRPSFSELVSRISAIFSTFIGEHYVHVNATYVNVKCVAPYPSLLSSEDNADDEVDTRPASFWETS
Chain of Macrophage-stimulating protein receptor (Q04912 25-304 limits assumed): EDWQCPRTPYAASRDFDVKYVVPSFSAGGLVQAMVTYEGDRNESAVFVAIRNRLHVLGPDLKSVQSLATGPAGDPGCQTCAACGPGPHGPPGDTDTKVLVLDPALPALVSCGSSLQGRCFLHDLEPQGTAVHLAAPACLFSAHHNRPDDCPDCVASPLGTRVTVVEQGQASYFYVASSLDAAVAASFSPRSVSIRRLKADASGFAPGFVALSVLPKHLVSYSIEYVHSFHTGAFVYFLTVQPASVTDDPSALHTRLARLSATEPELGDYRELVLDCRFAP
Chain of Macrophage-stimulating protein receptor (Q04912 310-1400 limits assumed): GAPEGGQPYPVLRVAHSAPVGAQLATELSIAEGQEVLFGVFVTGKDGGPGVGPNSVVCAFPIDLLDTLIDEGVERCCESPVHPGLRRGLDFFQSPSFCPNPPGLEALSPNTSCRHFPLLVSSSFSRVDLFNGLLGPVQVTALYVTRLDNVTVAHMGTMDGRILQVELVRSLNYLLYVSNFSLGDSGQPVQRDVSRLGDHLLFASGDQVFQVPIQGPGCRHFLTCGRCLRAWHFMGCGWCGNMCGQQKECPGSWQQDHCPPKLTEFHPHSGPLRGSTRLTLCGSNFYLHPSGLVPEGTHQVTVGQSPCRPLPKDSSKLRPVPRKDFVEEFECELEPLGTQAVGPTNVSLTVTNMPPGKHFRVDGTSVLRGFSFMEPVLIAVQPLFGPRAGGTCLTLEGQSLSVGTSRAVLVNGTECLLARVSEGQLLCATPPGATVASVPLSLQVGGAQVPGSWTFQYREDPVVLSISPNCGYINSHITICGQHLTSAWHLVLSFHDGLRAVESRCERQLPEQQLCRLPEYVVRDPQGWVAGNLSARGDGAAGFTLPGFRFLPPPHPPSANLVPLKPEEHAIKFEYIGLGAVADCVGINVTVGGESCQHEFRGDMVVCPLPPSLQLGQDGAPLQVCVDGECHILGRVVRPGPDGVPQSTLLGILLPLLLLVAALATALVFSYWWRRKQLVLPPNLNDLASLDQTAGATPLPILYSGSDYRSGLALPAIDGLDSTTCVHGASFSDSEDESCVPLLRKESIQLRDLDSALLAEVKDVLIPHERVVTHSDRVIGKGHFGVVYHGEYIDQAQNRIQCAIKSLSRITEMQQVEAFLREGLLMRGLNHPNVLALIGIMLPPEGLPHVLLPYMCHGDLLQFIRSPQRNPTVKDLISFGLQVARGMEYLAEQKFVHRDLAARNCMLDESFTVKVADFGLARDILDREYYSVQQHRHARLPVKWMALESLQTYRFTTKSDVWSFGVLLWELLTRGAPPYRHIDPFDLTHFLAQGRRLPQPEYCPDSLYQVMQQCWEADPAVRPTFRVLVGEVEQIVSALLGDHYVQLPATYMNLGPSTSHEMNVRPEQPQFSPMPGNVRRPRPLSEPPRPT
Chain of Vascular endothelial growth factor receptor 3 (P35916 whole entry): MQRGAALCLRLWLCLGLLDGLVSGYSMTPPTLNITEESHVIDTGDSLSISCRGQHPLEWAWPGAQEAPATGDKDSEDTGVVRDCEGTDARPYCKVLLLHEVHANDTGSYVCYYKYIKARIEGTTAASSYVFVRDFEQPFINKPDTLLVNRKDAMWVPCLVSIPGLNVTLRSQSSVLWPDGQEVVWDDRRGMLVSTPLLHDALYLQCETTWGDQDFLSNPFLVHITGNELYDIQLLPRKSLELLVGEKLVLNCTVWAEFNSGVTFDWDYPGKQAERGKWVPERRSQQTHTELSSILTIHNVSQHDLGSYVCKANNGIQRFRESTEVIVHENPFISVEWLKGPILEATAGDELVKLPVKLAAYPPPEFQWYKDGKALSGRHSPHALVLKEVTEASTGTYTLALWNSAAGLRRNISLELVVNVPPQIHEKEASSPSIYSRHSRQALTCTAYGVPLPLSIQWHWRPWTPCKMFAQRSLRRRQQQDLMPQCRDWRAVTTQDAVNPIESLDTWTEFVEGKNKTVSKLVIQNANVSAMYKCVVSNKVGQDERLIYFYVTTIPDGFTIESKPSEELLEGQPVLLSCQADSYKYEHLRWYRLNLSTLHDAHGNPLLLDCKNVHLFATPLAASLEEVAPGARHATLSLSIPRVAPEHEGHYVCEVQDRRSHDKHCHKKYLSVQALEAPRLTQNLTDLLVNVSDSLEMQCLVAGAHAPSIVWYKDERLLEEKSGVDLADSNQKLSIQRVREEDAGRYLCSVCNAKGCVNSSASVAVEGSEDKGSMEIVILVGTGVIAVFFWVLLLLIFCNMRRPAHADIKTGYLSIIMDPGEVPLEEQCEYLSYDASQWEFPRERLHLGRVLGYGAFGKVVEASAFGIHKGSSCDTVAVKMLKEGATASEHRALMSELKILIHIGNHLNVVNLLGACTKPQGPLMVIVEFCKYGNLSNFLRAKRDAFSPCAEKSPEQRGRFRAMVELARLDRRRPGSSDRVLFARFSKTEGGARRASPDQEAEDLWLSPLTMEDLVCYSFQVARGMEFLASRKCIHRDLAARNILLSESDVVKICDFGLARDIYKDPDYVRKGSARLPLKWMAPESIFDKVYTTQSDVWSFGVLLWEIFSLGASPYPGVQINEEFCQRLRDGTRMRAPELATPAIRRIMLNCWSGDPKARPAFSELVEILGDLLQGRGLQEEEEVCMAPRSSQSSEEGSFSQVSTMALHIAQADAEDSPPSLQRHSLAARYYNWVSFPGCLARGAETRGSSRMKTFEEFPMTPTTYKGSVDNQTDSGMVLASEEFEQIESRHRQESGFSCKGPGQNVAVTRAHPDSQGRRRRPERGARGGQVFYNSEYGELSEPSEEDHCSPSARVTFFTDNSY

pIC50 [1]: 9.40
Structure (SMILES): CN(C[C@@H]1COCCO1)S(=O)(=O)Nc1ccc2ccc3ncc(-c4cnn(C)c4)cc3c(=O)c2c1 [MK-2461]

Structure (SMILES): CNC(=O)c1cc2c(Oc3ccc(NC(=S)NC(=O)Cc4ccccc4)cc3F)ccnc2cc1OC [TAS-115]
GI50 at 72 h [2]: > 10000 nM

pIC50 [3]: 7.80
Structure (SMILES): CN1CCN(C2CCN(C(=O)Nc3cc(Oc4ccc(NC(=O)C5(C(=O)Nc6ccc(F)cc6)CC5)c(F)c4)ccn3)CC2)CC1 [GOLVATINIB]
pIC50 [4]: 7.62
pIC50 [5]: 7.64
pIC50 [6]: 8.21
pIC50 [7]: 7.43
pIC50 (HUVEC [8]): 7.08
pIC50 (HUVEC [9]): 7.77
pIC50 (HUVEC [10]): < 6.00

Structure (SMILES): COc1cc2c(Oc3ccc(NC(=O)C4(C(=O)Nc5ccc(F)cc5)CC4)cc3F)ccnc2cc1OCCCN1CCOCC1 [FORETINIB]
Activity [11]: 31%
Activity [12]: 62%
Activity [13]: 50%
Activity [14]: 58%
inhibition in vivo at 30 mg/kg [15]: 64%
inhibition in vivo at 100 mg/kg [16]: 87%

pIC50 [17]: 8.11
pIC50 [18]: 8.26
Structure (SMILES): CC1=[N+](c2ccccc2)C(=O)C(C(=O)Nc2ccc(Oc3ccc4nc(NC(=O)C5CC5)cn4c3)c(F)c2)C=C1 (stereo not drawn)

pIC50 [1]: 8.40
Structure (SMILES): Cn1cc(-c2ccc3nnc(C(F)(F)c4ccc5ncccc5c4)n3n2)cn1 [JNJ-38877605]

pKi [1]: 6.45
Structure (SMILES): O=C1NC(=O)[C@@H](c2cn3c4c(cccc24)CCC3)[C@@H]1c1c[nH]c2ccccc12 [TIVANTINIB]

pIC50 [19]: > 8.52
pIC50 [20]: > 8.52
pIC50 [21]: > 8.52
Structure (SMILES): Nc1nccc(Oc2ccc(NC(=O)c3c[nH]cc(-c4ccc(F)cc4)c3=O)cc2F)c1Cl [BMS-794833]
